Laboratory results: article PMC9030254, “Target Hopping from Protein Kinases to PXR: Identification of Small-Molecule Protein Kinase Inhibitors as Selective Modulators of Pregnane X Receptor from TüKIC Library” (Cells, 2022)

Key:
Assay in all cases: Kinase profiling
Format in all cases: biochemical
DYRK2 = molecular target: T1, DYRK2 (Homo sapiens, UniProt Q92630)
T1 construct: purchased ProQinase (Freiburg, Germany)
T1 sequence (Q92630 1-601): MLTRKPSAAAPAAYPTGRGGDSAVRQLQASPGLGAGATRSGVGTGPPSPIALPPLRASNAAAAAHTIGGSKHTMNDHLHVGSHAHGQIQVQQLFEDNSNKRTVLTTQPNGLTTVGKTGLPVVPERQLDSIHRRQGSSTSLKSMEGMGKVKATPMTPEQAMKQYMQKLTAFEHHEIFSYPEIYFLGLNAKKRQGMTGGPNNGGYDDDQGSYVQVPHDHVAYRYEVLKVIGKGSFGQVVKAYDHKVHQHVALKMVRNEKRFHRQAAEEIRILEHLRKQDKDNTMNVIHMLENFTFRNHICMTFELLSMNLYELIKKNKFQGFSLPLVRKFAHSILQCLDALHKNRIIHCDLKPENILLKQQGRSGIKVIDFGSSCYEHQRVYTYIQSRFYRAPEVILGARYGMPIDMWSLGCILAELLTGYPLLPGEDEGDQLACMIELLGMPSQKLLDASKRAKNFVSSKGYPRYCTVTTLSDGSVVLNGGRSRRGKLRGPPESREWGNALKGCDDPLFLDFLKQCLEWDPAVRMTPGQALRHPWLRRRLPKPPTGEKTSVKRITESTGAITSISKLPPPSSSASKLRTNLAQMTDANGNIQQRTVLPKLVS
Experimental: (§1) The analysis was performed by ProQinase (Freiburg, Germany).

IKKepsilon = molecular target: T2, IKKepsilon (Homo sapiens, UniProt Q14164)
T2 construct: purchased ProQinase (Freiburg, Germany)
T2 sequence (Q14164 1-716): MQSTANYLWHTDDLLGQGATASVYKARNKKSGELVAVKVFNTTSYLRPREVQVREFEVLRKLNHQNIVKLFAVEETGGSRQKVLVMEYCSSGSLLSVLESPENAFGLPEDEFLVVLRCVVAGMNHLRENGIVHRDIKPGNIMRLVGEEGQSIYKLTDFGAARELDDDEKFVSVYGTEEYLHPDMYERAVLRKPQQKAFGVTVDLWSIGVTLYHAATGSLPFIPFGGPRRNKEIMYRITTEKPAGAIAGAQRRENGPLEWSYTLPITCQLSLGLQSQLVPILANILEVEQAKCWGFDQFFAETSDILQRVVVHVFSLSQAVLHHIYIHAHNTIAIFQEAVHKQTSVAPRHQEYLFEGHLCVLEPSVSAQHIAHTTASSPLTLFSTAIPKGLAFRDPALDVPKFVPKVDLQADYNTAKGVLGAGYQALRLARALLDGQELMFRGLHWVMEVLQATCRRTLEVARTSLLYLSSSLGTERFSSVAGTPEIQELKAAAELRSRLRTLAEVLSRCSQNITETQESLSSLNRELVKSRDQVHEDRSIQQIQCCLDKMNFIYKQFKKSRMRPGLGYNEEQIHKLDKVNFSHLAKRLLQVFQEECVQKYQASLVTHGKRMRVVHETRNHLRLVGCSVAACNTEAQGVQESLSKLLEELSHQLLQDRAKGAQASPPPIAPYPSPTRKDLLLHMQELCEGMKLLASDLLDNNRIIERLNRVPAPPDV
Experimental: as §1

MAP3K7/MAP3K7IP1 = molecular target: T3, MAP3K7/MAP3K7IP1 (Homo sapiens, UniProt O43318)
T3 construct: purchased ProQinase (Freiburg, Germany)
T3 sequence (O43318 1-303 limits assumed): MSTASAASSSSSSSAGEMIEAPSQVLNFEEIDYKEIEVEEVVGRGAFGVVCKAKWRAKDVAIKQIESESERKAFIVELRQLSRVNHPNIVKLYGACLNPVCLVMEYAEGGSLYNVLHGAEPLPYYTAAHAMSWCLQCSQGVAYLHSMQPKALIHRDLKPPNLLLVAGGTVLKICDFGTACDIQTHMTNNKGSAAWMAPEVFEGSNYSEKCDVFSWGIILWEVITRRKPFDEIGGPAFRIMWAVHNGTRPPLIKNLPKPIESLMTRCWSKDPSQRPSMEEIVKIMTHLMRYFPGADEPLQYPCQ
Experimental: as §1

MERTK = molecular target: T4, MERTK (Homo sapiens, UniProt Q12866)
T4 construct: purchased ProQinase (Freiburg, Germany)
T4 sequence (Q12866 21-999): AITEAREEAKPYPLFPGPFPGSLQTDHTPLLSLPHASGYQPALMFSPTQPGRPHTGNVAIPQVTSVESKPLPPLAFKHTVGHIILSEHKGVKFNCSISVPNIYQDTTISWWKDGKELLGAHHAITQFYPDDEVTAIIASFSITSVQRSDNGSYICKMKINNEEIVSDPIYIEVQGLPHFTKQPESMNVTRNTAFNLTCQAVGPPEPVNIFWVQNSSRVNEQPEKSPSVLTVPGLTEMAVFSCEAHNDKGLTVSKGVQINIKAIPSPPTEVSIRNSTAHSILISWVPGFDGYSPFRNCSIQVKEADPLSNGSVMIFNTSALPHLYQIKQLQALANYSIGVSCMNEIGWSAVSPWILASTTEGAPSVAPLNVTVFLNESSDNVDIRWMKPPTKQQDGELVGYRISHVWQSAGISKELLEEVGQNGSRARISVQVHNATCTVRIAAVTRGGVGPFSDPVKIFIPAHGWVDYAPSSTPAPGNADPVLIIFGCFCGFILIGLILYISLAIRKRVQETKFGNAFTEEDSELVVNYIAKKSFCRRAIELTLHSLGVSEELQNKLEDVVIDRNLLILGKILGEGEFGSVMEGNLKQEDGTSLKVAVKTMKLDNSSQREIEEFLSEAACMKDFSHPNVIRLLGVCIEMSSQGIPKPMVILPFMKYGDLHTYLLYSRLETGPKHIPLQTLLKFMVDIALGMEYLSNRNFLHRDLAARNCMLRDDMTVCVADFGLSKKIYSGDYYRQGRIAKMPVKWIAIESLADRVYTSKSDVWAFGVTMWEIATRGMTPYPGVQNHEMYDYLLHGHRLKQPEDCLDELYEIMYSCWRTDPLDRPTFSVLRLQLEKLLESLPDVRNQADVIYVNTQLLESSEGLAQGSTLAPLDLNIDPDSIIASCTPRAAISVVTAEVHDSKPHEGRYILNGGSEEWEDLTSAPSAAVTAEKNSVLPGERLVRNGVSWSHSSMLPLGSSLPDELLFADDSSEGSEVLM
Experimental: as §1

MET = molecular target: T5, MET (Homo sapiens, UniProt P08581)
T5 construct: purchased ProQinase (Freiburg, Germany)
T5 sequence (P08581 25-1390): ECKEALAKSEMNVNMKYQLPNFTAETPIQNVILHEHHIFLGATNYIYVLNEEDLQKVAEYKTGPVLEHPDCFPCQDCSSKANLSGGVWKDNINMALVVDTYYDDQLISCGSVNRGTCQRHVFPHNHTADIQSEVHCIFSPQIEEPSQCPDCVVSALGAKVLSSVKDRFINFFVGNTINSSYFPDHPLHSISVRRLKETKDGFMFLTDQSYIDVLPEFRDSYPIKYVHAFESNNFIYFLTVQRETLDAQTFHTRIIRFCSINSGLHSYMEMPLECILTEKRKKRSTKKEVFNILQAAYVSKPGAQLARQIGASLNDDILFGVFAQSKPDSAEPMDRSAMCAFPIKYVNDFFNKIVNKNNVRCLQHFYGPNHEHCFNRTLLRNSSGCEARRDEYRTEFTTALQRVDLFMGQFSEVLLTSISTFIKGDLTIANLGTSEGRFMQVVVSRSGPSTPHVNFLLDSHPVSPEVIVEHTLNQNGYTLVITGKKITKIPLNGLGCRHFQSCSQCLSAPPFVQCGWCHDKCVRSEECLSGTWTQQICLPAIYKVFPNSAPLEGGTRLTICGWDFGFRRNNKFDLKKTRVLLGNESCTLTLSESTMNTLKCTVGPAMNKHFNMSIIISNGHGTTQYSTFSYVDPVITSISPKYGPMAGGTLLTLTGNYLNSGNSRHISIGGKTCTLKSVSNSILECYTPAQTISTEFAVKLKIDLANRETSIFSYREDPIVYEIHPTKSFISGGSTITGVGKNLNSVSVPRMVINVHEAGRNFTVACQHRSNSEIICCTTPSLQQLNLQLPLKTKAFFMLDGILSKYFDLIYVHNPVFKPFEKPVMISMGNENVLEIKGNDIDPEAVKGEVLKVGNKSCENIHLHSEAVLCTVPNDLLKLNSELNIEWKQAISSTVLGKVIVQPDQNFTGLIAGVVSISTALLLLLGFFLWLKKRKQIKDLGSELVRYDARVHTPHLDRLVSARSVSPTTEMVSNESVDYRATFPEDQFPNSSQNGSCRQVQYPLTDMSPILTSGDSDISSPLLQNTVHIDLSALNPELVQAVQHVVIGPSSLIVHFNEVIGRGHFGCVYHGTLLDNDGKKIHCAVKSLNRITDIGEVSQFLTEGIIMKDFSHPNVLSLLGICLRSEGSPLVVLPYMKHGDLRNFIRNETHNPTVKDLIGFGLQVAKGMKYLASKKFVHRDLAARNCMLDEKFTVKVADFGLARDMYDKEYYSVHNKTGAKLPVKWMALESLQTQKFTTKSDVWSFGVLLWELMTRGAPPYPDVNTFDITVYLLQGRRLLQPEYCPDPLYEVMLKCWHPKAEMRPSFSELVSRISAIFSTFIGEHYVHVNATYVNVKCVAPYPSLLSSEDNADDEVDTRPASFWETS
Experimental: as §1

MKNK1 = molecular target: T6, MKNK1 (Homo sapiens, UniProt Q9BUB5)
T6 construct: purchased ProQinase (Freiburg, Germany)
T6 sequence (Q9BUB5 whole entry): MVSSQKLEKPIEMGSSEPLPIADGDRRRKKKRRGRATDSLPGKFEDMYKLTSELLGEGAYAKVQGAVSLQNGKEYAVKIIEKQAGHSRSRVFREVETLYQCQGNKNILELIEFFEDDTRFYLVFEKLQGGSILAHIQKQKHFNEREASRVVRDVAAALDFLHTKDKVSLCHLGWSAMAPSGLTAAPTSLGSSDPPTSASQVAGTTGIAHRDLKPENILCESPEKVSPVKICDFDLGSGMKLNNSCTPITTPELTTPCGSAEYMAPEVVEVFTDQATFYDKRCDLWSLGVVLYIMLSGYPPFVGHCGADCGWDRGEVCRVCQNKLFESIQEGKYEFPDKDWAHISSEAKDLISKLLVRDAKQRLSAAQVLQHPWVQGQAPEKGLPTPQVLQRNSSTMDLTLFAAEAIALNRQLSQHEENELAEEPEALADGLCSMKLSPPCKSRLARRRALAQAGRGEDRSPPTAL
Experimental: as §1

WEE1 = molecular target: T7, WEE1 (Homo sapiens, UniProt P30291)
T7 construct: purchased ProQinase (Freiburg, Germany)
T7 sequence (P30291 whole entry): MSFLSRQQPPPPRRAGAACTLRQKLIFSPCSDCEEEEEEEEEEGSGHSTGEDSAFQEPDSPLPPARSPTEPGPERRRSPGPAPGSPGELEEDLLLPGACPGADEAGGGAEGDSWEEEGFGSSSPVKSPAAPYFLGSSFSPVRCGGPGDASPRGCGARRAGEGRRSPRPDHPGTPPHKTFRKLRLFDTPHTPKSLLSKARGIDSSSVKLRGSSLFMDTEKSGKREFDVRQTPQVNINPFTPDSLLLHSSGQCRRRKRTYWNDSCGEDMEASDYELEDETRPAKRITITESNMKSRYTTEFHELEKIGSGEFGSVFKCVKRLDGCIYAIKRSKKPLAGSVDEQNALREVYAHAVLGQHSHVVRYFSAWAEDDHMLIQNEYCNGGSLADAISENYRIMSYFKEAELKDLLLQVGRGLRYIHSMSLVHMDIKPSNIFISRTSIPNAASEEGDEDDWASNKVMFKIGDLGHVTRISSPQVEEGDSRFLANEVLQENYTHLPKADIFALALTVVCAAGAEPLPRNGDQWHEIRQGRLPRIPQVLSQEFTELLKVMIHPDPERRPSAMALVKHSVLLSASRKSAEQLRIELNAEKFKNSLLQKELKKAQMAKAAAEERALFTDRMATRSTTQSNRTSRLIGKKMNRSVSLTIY
Experimental: as §1

Structure (SMILES) | Residual activity (DYRK2; 1.0E-05 M) | Residual activity (DYRK2; 1.0E-06 M) | Residual activity (IKKepsilon; 1.0E-05 M) | Residual activity (IKKepsilon; 1.0E-06 M) | Residual activity (MAP3K7/MAP3K7IP1; 1.0E-05 M) | Residual activity (MAP3K7/MAP3K7IP1; 1.0E-06 M) | Residual activity (MERTK; 1.0E-05 M) | Residual activity (MERTK; 1.0E-06 M) | Residual activity (MET; 1.0E-05 M) | Residual activity (MET; 1.0E-06 M) | Residual activity (MKNK1; 1.0E-05 M) | Residual activity (MKNK1; 1.0E-06 M) | Residual activity (WEE1; 1.0E-05 M) | Residual activity (WEE1; 1.0E-06 M)
O=C(Cc1ccccc1)Nc1ccc(F)c(Nc2ccc3c(c2)CCCCC3=O)c1 [Compound 100] | 91 % of control | 89 % of control | 101 % of control | 103 % of control | 91 % of control | 88 % of control | 73 % of control | 103 % of control | 89 % of control | 101 % of control | 95 % of control | 90 % of control | 100 % of control | 103 % of control
O=C(Nc1ccc(F)c(Nc2ccc3c(c2)CCCCC3=O)c1)c1cccc(F)c1 [Compound 109] | 92 % of control | 98 % of control | 92 % of control | 95 % of control | 91 % of control | 91 % of control | 85 % of control | 101 % of control | 91 % of control | 95 % of control | 91 % of control | 92 % of control | 95 % of control | 100 % of control
